Target: T1, Bifunctional epoxide hydrolase 2 (Homo sapiens, UniProt P34913)
T1 sequence (P34913 whole entry): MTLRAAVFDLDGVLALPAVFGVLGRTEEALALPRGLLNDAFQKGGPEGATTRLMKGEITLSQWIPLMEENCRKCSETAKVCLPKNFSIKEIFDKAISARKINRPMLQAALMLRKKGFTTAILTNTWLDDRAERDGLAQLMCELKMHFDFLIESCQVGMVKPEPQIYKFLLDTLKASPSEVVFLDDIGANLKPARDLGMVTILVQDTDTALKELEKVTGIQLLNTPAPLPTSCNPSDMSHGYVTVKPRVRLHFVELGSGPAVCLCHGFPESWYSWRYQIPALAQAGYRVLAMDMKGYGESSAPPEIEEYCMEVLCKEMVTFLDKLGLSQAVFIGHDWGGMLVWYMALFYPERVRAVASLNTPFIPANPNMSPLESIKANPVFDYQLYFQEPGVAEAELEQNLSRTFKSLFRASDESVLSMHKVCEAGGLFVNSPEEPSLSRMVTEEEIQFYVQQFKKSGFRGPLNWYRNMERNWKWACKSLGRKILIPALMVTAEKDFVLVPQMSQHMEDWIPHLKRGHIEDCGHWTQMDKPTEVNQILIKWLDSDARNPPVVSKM
Assay: Inhibition of soluble epoxide hydrolase (unknown origin) using NEPC as substrate after 1 hr by fluorescence assay

## CC1=CC[C@@H]2C(=C(O)c3ccccc3[C@@H]2O)C1=O
  IC50: 1100 nM

## Cc1ccc2c(O[C@@H]3O[C@H](CO)[C@@H](O)[C@H](O)[C@H]3O)c3ccccc3c(O[C@@H]3O[C@H](CO)[C@@H](O)[C@H](O)[C@H]3O)c2c1
  IC50: 300 nM

Reference: ChEMBL document CHEMBL4266023, “NMR-Based Investigation of Hydrogen Bonding in a Dihydroanthracen-1(4 H)one from Rubia philippinensis and Its Soluble Epoxide Hydrolase Inhibitory Potential” (J Nat Prod, 2018)
